Like-named read-outs stand apart in the source and are kept apart here.
Assays:
[1] = test system: other serine hydrolases in the lysate; experiment: Competition with activity-based probe FP-PEG-TAMRA in PC-3 whole cell lysate: other serine hydrolases; format: binding, human; conditions: PC-3 lysate, 20 μM final, pH 7.8
Method: Studies were conducted to determine the selectivity of compound 16 for FASN over other human thioesterases. The ability of the compounds to bind the FASN holoenzyme was tested by assessing their ability to compete for the binding of an activity-based probe that covalently attaches to the active site of the FASN thioesterase. Thioesterases are members of the serine hydrolase family, which also includes a number of other types of enzymes including proteases, dipeptidyl peptidases, epoxide hydrolases, etc. To help assess the selectivity of compound 16, an activity-based probe polyethyleneglycol-6-carboxytetramethyl-rhodamine (FP-PEG-TAMRA) that binds covalently to the catalytic serine of all serine hydrolases was used. These studies were done by assessing the ability of compound 16 to compete for the binding of the activity-based probe in whole cell lysates. Several analogs of compound 16 were tested in this assay using lysates of the prostate tumor line (PC3), which expresses FASN, along with numerous other serine hydrolases. The PC-3 lysate was incubated with 8 different FASN inhibitors, including compounds 1, 16 and 97. Then the activity-based probe (FP-PEG-TAMRA) was added to each sample to label the serine hydrolases in the lysate.

FASN thioesterase = molecular target: T1, FASN thioesterase (Homo sapiens, UniProt P49327); experiment: FP-PEG-TAMRA labeling of recombinant FASN thioesterase; format: binding; conditions: recombinant enzyme, 20 μM final, pH 7.8
T1 construct: label the active site of the FASN thioesterase and ACOT4
T1 sequence (P49327 2207-2511 limits assumed): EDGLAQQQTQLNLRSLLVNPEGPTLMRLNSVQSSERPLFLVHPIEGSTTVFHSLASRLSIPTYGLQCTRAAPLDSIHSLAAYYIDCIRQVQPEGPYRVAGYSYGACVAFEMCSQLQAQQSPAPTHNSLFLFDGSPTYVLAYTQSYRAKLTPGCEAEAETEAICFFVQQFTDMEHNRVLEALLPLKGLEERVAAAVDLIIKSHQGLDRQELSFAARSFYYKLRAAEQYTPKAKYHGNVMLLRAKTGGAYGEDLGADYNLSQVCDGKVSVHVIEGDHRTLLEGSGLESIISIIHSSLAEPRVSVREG
Method: Additionally, studies were performed to test the selectivity of Compounds 1, 16, 22, and 37 for the FASN thioesterase over its most closely related human homolog, the enzyme called ACOT4 (see FIG. 3). Both proteins were mixed and pretreated with the compound (20 μM final, pH 7.8) before addition of the fluorescent activity probe FP-PEG-TAMRA. Respective fluorescence of the bands was detected on a Hitachi flatbed scanner and a greyscale version used for quantitative analysis using ImageJ. Recombinant forms of each enzyme were incubated with compound 16, compound 1, compound 37, and compound 22. FP-TAMRA was included in this mixture to label the active site of the FASN thioesterase and ACOT4. […] These findings further attest to the high degree of selectivity of compounds 1, 16, 37 and 22 for the FASN thioesterase.

in vitro = conditions: human
[2] = test system: prostate cancer PC-3 cells; experiment: De novo palmitate synthesis from 13C-glucose in whole cells (GC-MS); format: cell-based
Method: The ability of compounds to block biosynthesis of palmitate in whole cells (prostate cancer PC-3 cells) was measured by feeding cells isotopically labeled glucose (^13C-glucose) and measuring the incorporation of ^13C into palmitate by GC-MS.
Prostate cancer PC-3 cell were incubated with 20 μM of FASN inhibitors and labeled with [U-13C]-glucose for 24 h, pH 7.8. The incorporation of ^13C into palmitate from labeled glucose was determined by extracting fatty acids and resolving them by GC-MS. The mass distributions for fatty acid methyl esters for C16:0 (palmitate) were corrected for isotope natural abundance, and the corrected isotope patterns were used to calculate the labeling of acetyl-CoA in palmitate based on a binomial probability distribution of the incorporation of labeled acetyl units into the fatty acid chain.

[3] = Chemical stability in 1x PBS; format: physicochemical
PAMPA permeability = format: in vitro ADME; conditions: for Papp: PAMPA, read-out: PAMPA Permeability, Pe
Method: The PAMPA (Parallel Artificial Membrane Permeability Assay) assay was used as an in vitro model of passive, transcellular permeability. An artificial membrane immobilized on a filter was placed between a donor and acceptor compartment. At the start of the test, drug was introduced in the donor compartment. Following the permeation period, the concentration of drug in the donor and acceptor compartments was measured using UV spectroscopy.

FASN-TE = FASN-TE (Homo sapiens, UniProt P49327); experiment: In-vitro biochemical assay measuring FAS-TE inhibition (OMFH substrate, fluorescence)
Chain of FASN-TE (P49327 2207-2511 limits assumed): as above
Method: Min wells: Substrate+No enzyme+DMSO, Max wells: Substrate+Enzyme+DMSO, Sample wells: Substrate+Enzyme+Test compounds, Reference compound: Orlistat (make a fresh 10 mM stock in DMSO each time). 384-well black, low-volume plate (Greiner #784076)
Assay Protocol: • 1) ECHO transfer 160 nL of 125× Compound (or DMSO for control wells) per well. • 2) For Max and Sample wells: Add 10 μL of Enzyme (2×; 1.8 μM) prepared in RXN Buffer. For Min wells: Add 10 μL of RXN Buffer (No Enzyme). • 3) For all wells: Add 10 μL of Substrate (2×; 20 μM) prepared in diH2O+10% DMSO. • 4) Centrifuge plate for 1 minute at 1,000 rpm. • 5) Measure fluorescence every 5 minutes for 1-1.5 hours using the BMG POLARstar (ex 485 nm/em 520 nm; Gain=1015; 25 flashes). • 6) All volumes can be adjusted but the final DMSO concentration should be kept at about 6%.
Data Analysis: • 1) Calculate slopes and express as % Activity (Min wells=0%; Max wells=100%). • 2) Then, using Prism, calculate the IC50 values.

Plasma stability, human = format: in vitro ADME
Excerpt: (§1) Plasma stability is a measure of the stability of small molecules and peptides in plasma and is an important parameter, which can strongly influence the in vivo efficacy of a test compound. Drug candidates are exposed to enzymatic processes (proteinases, esterases) in plasma, and they can undergo intramolecular rearrangement or bind irreversibly (covalently) to proteins.

[4] = Plasma protein binding, human; format: in vitro ADME
Excerpt: (§2) Plasma protein binding was a measure of a drug's efficiency to bind to the proteins within blood plasma. The less bound a drug is, the more efficiently it can traverse cell membranes or diffuse. […] In contrast, drugs that remain largely unbound in plasma are generally available for distribution to other organs and tissues.

[5] = Plasma protein binding, mouse; format: in vitro ADME; conditions: read-out: Plasma Protein Binding (% Bound) (converted)
Excerpt: as §2

[6] = Hepatic microsome stability, mouse; format: in vitro ADME
Excerpt: The microsomal stability assay is commonly used to rank compounds according to their metabolic stability. This assay addresses the pharmacologic question of how long the parent compound will remain circulating in plasma within the body.

Plasma stability, mouse = format: in vitro ADME
Excerpt: as §1

For `CCC(CC)C(=O)Nc1nc(-c2ccc(S(=O)(=O)N3CCOCC3)cc2)cs1` [Compound 16, 2-Ethyl-N-(4-(4-(morpholinosulfonyl)phenyl)thiazol-2-yl)butanamide], the “competition for activity based labeling of other serine hydrolases” value [1] was “no competition”, the “binding of FP-TAMRA to the active site of the FASN thioesterase” value (FASN thioesterase) was “blocked the binding of FP-TAMRA” and the CC50 (in vitro) was greater than 50000 nM. For the same molecule, the “inhibition of palmitate synthesis in whole cells” value [2] was “inhibitory activity”, the “de novo palmitate synthesis/DMSO (%)” value ([2]; 20 μM, [U-13C]-glucose 24 h, pH 7.8, relative to DMSO control) was 50% and the “Chemical Stability in 1x PBS pH 7.4 (% remaining after 48 hrs)” value ([3]; 1x PBS pH 7.4, 48 hrs) was 100/100%. For the same molecule, the “Chemical Stability in 1x PBS pH 7.4 with 50% ACN (% remaining after 48 hrs)” value ([3]; with 50% ACN, 48 hrs) was 100/100%, the Papp (PAMPA permeability; Donor pH 5.0, Acceptor pH 7.4) was 914 ×10⁻⁶ cm/s and the Papp (PAMPA permeability; Donor pH 6.2, Acceptor pH 7.4) was 961 ×10⁻⁶ cm/s. For the same molecule, the Papp (PAMPA permeability; pH 7.4, Donor pH 7.4, Acceptor pH 7.4) was 653 ×10⁻⁶ cm/s, the “PAMPA permeability” value (PAMPA permeability; across a range of pH of the donor compartment) was “very good permeability” and the IC50 (FASN-TE) was 334 nM. The “Plasma Stability (% Remaining at 3 hrs)” value (Plasma stability, human; Human, 3 hrs) was 100/100%, the “plasma stability” value (Plasma stability, human; human plasma) was “good stability” and the fraction unbound at 1 μM ([4]; plasma, Human, 1 μM, read-out: Plasma Protein Binding (% Bound) (converted)) was 0.034. The fraction unbound at 10 μM ([4]; plasma, Human, 10 μM, read-out: Plasma Protein Binding (% Bound) (converted)) was 0.0253, the “plasma protein binding” value ([4]; species not given) was “highly plasma protein bound” and the fraction unbound at 1 μM ([5]; 1 μM) was 0.0381. The fraction unbound at 10 μM ([5]; 10 μM) was 0.0337, the “Hepatic Microsome Stability (% Remaining at 1 hr)” value ([6]; Mouse, 1 hr) was 6.37% and the “liver microsome stability” value ([6]; mouse liver microsomes) was “poor stability”. For the same molecule, the “Plasma Stability (% Remaining at 3 hrs)” value (Plasma stability, mouse; Mouse, 3 hrs) was 100/100% and the “plasma stability” value (Plasma stability, mouse; mouse plasma) was “good stability”.

Reference: patent US10071976B2, “Small molecule fatty acid synthase inhibitors” (Sanford Burnham Prebys Medical Discovery Institute, priority 2014, dated 2018)
